Source: US9878982B2, “Pyridine derivatives and anti-mycobacterial use thereof” (priority 2014, dated 2018)
Values after ≈ are worked out from the molar mass of the structure shown. Where two headings read alike, the source gives them in different places.

Tests used:
M. tuberculosis H37Rv = assay: In vitro efficacy test using the H37Rv strain, Microplate Alamar Blue Assay (MABA) MIC; format: cell-based, Mycobacterium tuberculosis; details: for MIC: Mycobacterium tuberculosis, H37RV
M. tuberculosis H37R = assay: microbe, parasite or virus in culture; format: cell-based, Mycobacterium tuberculosis; details: for MIC: Mycobacterium tuberculosis, H37R, read-out: M. tuberculosis H37R LORA (MIC)
Vero Cell = assay: Vero cell cytotoxicity (IC50); format: cell-based; details: African green monkey kidney cells; for IC50: Chlorocebus sabaeus, Vero
[1] = tested on: Mycobacterium tuberculosis (ATCC35801); assay: In vivo efficacy in a mice model infected with M. tuberculosis by spray (lung bacteria load); details: female Balb/c mice, day 35, compared with the solvent treated group
in vitro = details: human
[2] = tested on: Mycobacterium smegmatis strain ATCC19420; assay: In vitro efficacy test using Mycobacterium smegmatis strain ATCC19420 (MIC); format: cell-based; details: CA-MHB + 0.02% Tween 80, 30° C., read after 72 hours; for MIC: Mycolicibacterium smegmatis, ATCC19420, 72 h
Hela = Hela cell cytotoxicity (CC50); details: human cervical cancer cells; half of the toxic concentration
[3] = Hela cell cytotoxicity (CC50); details: human, HeLa cells (human cervical cancer cells), CC50_Hela, half of the toxic concentration
[4] = aerobic, 7H9 medium, Alamar Blue, read-out: M. tuberculosis H37Rv MABA (MIC)
[5] = wild-type H37Rv strain, two values per compound, read-out: MABA MIC vs. H37Rv
[6] = wild-type H37Rv strain, two values per compound
[7] = aerobic, 7H9 medium, Alamar Blue

Row | SMILES | MIC (M. tuberculosis H37Rv; [4]) [µg/mL] | MIC (M. tuberculosis H37R) [µg/mL] | IC50 (Vero Cell) [µg/mL] | M. smegmatis ATCC19420 MIC [2] [µg/mL] | M. tuberculosis H37Rv MABA (MIC) (M. tuberculosis H37Rv; [7]) [µg/mL] | M. tuberculosis H37R LORA (MIC) (M. tuberculosis H37R) [µg/mL] | CC50_Hela (Hela) [µg/mL] | MIC [2] [µg/mL] | CC50 [3] [µg/mL] | also measured
1 | COc1nc2ccc(Br)cc2cc1[C@@H](c1ccccc1)[C@@](O)(CCN(C)C)c1cccc2ccccc12 [Bedaquiline, reference compound] | 0.03 | 0.2 (≈ 0.36 µM) | > 32 |  |  |  |  |  |  | MIC (M. tuberculosis H37Rv; [5]): 0.06 µM; MABA MIC vs. H37Rv (M. tuberculosis H37Rv; [6]): 0.05 µM; reduction of the amount of the bacteria in the lungs ([1]; 25 mg/kg by gavage once each working day for four weeks): 5.2 log; CC50 (in vitro): > 64 µg/mL
2 | CO[C@H]1/C=C/O[C@@]2(C)Oc3c(C)c(O)c4c(O)c(c(/C=N/N5CCN(C)CC5)c(O)c4c3C2=O)NC(=O)/C(C)=C\C=C\[C@H](C)[C@H](O)[C@@H](C)[C@@H](O)[C@@H](C)[C@H](OC(C)=O)[C@@H]1C [rifampicin] |  |  |  |  |  |  |  |  |  | reduction of the amount of the bacteria in the lungs ([1]; 15 mg/kg by gavage once each working day for four weeks): 1.8 log
3 | COc1ncc(C2CCCC2)cc1C(c1ccccc1)C(O)(CCN(C)C)c1cccc2ccccc12 (centres unmarked) [Compound 64] |  |  |  | 0.5 | 2.33 | 3.06 | 28.75 (≈ 58.1 µM) |  |  | Vero Cell (IC50) (Vero Cell): >50 µg/mL
4 | COc1ncc(-c2csc(Br)c2)cc1C(c1ccccc1)C(O)(CCN(C)C)c1cccc2ccccc12 (centres unmarked) [Compound 275] |  |  |  | 0.125 | 0.41 | 0.67 | >64 |  |  | Vero Cell (IC50) (Vero Cell): >32 µg/mL
5 | COc1ncc(C2CCCCC2)cc1C(c1ccccc1)C(O)(CCN(C)C)c1cccc2ccccc12 (centres unmarked) [Compound 104, 1-(5-cyclohexyl-2-methoxypyridin-3-yl)-4-(dimethylamino)-2-(naphthalen-1-yl)-1-phenylbutan-2-ol] |  |  |  | 0.5 | 1.45 | 1.52 | 19.18 (≈ 37.7 µM) |  |  | Vero Cell (IC50) (Vero Cell): >50 µg/mL
6 | COc1ncc(C2CCCCC2)cc1C(c1ccccc1)C(O)(CCN(C)C)c1cccc2ccccc12 (centres unmarked) [Compound 103, 1-(5-cyclohexyl-2-methoxypyridin-3-yl)-4-(dimethylamino)-2-(naphthalen-1-yl)-1-phenylbutan-2-ol] | 0.76 | 1.48 (≈ 2.91 µM) | 32.3 (≈ 63.5 µM) | 0.125 |  |  | 57.72 (≈ 113 µM) |  |  | 
7 | COc1ncc(-c2ccc(Br)cc2)cc1C(c1ccccc1)C(O)(CCN(C)C)c1cccc2ccccc12 (centres unmarked) [Compound 133, 1-(5-(4-bromophenyl)-2-methoxypyridin-3-yl)-4-(dimethylamino)-2-(naphthalen-1-yl)-1-phenylbutan-2-ol] | 0.22 | 0.22 (≈ 0.378 µM) | > 32 |  |  |  |  | 0.0156 | > 64 | inhibitory activity against M. tuberculosis H37Rv, aerobic (MABA) (in words) (M. tuberculosis H37Rv): comparable to that of the marketed anti-TB drug, Bedaquiline; MIC (M. tuberculosis H37Rv; [5]): 0.12 µM; MABA MIC vs. H37Rv (M. tuberculosis H37Rv; [6]): 0.10 µM
8 | COc1ncc(-c2ccc(F)cc2)cc1C(c1ccccc1)C(O)(CCN(C)C)c1cccc2ccccc12 (centres unmarked) [Compound 91, 4-(dimethylamino)-1-(5-(4-fluorophenyl)-2-methoxypyridin-3-yl)-2-(naphthalen-1-yl)-1-phenylbutan-2-ol] | 0.34 | 0.71 (≈ 1.36 µM) | > 50 |  |  |  |  | 0.0312 | > 64 | 
9 | COc1ncc(-c2ccc(C(F)(F)F)cc2)cc1C(c1ccccc1)C(O)(CCN(C)C)c1cccc2ccccc12 (centres unmarked) [Compound 285, 4-(dimethylamino)-1-(2-methoxy-5-(4-(trifluoromethyl)phenyl)pyridin-3-yl)-2-(naphthalen-1-yl)-1-phenylbutan-2-ol] | 0.96 | 0.63 (≈ 1.1 µM) | > 32 |  |  |  |  | 0.0156 | > 64 | 
10 | COc1ncc(C2CCCC2)cc1C(c1ccccc1)C(O)(CCN(C)C)c1cccc2ccccc12 (centres unmarked) [Compound 63] |  |  | > 50 | <0.0625 | 0.75 | 1.41 |  |  | 52.9 (≈ 107 µM) | 
11 | COc1ncc(C2CCSCC2)cc1C(c1ccccc1)C(O)(CCN(C)C)c1cccc2ccccc12 (centres unmarked) [Compound 255, 4-(dimethylamino)-1-(2-methoxy-5-(tetrahydro-2H-thiopyran-4-yl)pyridin-3-yl)-2-(naphthalen-1-yl)-1-phenylbutan-2-ol] | 0.48 | 8.33 (≈ 15.8 µM) | > 32 |  |  |  |  | 0.25 | > 64 | 
